# Tests used:
# [1] = test system: HepG2 cells; experiment: qRT-PCR gene expression in HepG2 cells; format: cell-based, human; details: 24 h
# Description: Figure 2 MD001 induces the expression of target genes through PPARα and PPARγ activation. HEK293 cells were transiently co-transfected with human HA-PPARα (A) and HA-PPARγ (B) expression vectors along with the reporter plasmid (PPRE-pk-Luc) or control reporter plasmid (pk-Luc) with Renilla vector for 24 h. Cells were treated with MD001 (10 μM), rosiglitazone (rosi) (10 μM) or WY14643 (WY) (10 μM) for 24 h. Luciferase activity was normalised to Renilla luciferase activity as described in the Methods section. **, vs. vehicle. (C) HepG2 cells were treated with MD001 (10 μM) for 24 h, and total RNA was isolated and synthesised into cDNA. Relative expression was quantitated using qRT-PCR. **, vs. vehicle. (D,E) HepG2 cells were transfected with control siRNA, PPARα siRNA (D), or PPARγ siRNA (E) for 48 h and treated with vehicle, WY14643 (10 μM), rosiglitazone (10 μM) or MD001 (10 μM) for 24 h. Subsequently, cells were harvested for total RNA isolation. Relative expression of target genes was quantitated using qRT-PCR. ^#, vs. control siRNA; ^‡, vs. control siRNA/vehicle; ^§, vs. control siRNA/WY; * and **, vs. control siRNA/MD001. Data represent the mean ± SD of three independent experiments. *P < 0.05, **P < 0.01, ^#P < 0.01, ^‡P < 0.01, and ^§P < 0.01.
# Figure 3 MD001 promotes glucose consumption by induction of GLUT expression. HepG2 (A), differentiated 3T3-L1 adipocytes (B), and differentiated C2C12 myotubes (C) were treated with vehicle, MD001 (10, 50 μM), or rosiglitazone (rosi, 10 μM) for 24 h; glucose consumption was examined as described in the Methods section. Cells were harvested for total RNA isolation. Relative expression levels of GLUT2 (D) and GLUT4 (E,F) were quantitated using qRT-PCR. *, **, and ^† vs. vehicle. Data represent the mean ± SD of three independent experiments. *P < 0.05, **P < 0.01, and ^†P < 0.01.
# (§1) Figure 4 MD001 stimulates fatty acid oxidation in vitro. HepG2 (A), differentiated 3T3-L1 adipocyte (B), and differentiated C2C12 myotubes (C) were treated with vehicle or MD001 (10 μM) for 24 h and total RNA was isolated for cDNA synthesis. Relative gene expressions were analysed by qRT-PCR. HepG2 (D), differentiated 3T3-L1 adipocytes (E), and differentiated C2C12 myotubes (F) were treated with vehicle, MD001 (10 μM), or WY14643 (WY) (10 μM) for 24 h and the fatty acid oxidation rate was analysed as described in the Methods section. To confirm whether the fatty acid oxidation rate enhanced by MD001 is mediated by PPARα, HepG2 (G), differentiated 3T3-L1 (H), and differentiated C2C12 myotubes (I) were transfected with control or PPARα siRNA (20 nM) for 48 h, followed by treatment with vehicle, MD001 (10 μM), or WY14643 (WY) (10 μM) for 24 h. WY14643 was treated as positive control. *, **, vs. vehicle; ^† and ^‡, vs. vehicle/control siRNA; ^§, vs. WY/control siRNA; ^¶, vs. MD001/control siRNA. Data represent the mean ± SD of three independent experiments. *P < 0.05, **P < 0.01, ^†P < 0.01, ^‡P < 0.05, ^§P < 0.01, and ^¶P < 0.05.
# Total RNA was isolated using an RNeasy kit (Qiagen, Germantown, MD, USA) according to the manufacturer’s instructions. Complementary DNA (cDNA) was synthesised by reverse transcription using 0.5 μg of total RNA, and quantitative RT-PCR was performed using Power SYBR Green PCR Master Mix (ABI Thermo Fisher Scientific, Foster City, CA, USA) on a StepOne 48-well real-time PCR system (ABI/Thermo Fisher Scientific). GAPDH was used as an endogenous control. Primer sequences are summarized in Supplementary Table S1.
# [2] = biological target: T1, PPARγ (Homo sapiens, UniProt P37231); experiment: SPR analysis of binding to immobilised HA-PPARγ; details: MD001 31.25-500 μM
# T1 construct: HA; made in house
# T1 sequence (P37231 1-505): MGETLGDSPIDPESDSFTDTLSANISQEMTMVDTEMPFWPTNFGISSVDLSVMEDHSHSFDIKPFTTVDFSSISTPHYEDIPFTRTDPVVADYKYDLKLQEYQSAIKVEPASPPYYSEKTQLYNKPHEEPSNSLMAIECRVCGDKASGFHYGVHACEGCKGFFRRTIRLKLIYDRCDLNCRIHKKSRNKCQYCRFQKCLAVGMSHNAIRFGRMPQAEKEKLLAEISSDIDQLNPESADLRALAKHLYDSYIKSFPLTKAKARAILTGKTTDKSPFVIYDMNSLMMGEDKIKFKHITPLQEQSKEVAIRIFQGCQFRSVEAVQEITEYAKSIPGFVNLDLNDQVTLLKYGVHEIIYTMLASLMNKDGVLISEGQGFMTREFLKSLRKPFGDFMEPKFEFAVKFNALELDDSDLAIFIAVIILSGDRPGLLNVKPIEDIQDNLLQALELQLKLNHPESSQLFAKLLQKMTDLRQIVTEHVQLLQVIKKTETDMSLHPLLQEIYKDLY
# Description: SPR analysis was performed using a Reichert SR7500DC (Reichert Technologies, Depew, NY, USA). HA-PPARα, HA-PPARβ/δ, and HA-PPARγ were purified as previously described[23] and was immobilised on CMDH chips (Reichert Technologies) according to the manufacturer’s instructions. MD001 was loaded in a dose-dependent manner (31.25, 62.5, 125, 250, and 500 μM) for the SPR assay. The dissociation constant (KD) value was determined using the Scrubber2 program (Informer Technologies, Inc., Los Angeles, CA, USA).
# [3] = test system: HepG2 cells; experiment: Fatty acid oxidation assay ([3H]palmitate), HepG2; format: cell-based, human; details: 10 μM, 24 h
# Description: as §1, with “WY14643 was treated as positive control. *, **, vs. vehicle; ^† and ^‡, vs. vehicle/control siRNA; ^§, vs. WY/control siRNA; ^¶, vs. MD001/control siRNA. Data represent the mean ± SD of three independent experiments. *P < 0.05, **P < 0.01, ^†P < 0.01, ^‡P < 0.05, ^§P < 0.01, and ^¶P < 0.05.” left out
# For the fatty acid oxidation assay, cells were incubated in α-MEM (HyClone Laboratories, Inc., Logan, UT, USA) containing 0.1 mM palmitate (9,10-[^3H]palmitate, 5 μci/mL) (PerkinElmer, Waltham, MA, USA) and 1% bovine serum albumin for 24 h. […] After incubation, the vial was removed and radioactivity (^3H2O in water) was quantified using a liquid scintillation counter (LKB Instruments, Victoria, Australia).
smiles,measurement,setting,value
Cc1c(O)cc(O)c2c(-c3ccccc3)c(C(=O)/C=C/c3ccccc3)c(=O)oc12 [MD001],"expression of PPARα target genes ACOX, CPT, mCAD","[1]; HepG2, control siRNA, 10 μM",significantly increased
same,"expression of PPARγ target genes GK, CD36, FABP1","[1]; HepG2, control siRNA, 10 μM",significantly increased
same,"expression levels of ACOX, CPT, MLYCD, and FATP","[1]; HepG2, 10 μM",significantly increased
same,"expression of PPARα, PPARγ, and RXR genes","[1]; HepG2, 10 μM",significantly increased
same,expression of glucose transporter GLUT2,"[1]; HepG2, 10, 50 μM",significantly increased
same,Kd,[2],0.14 ± 0.03 µM
same,β-oxidation rate (fatty acid oxidation),[3],significantly increased

# From article PMC6367362, “MD001, a Novel Peroxisome Proliferator-activated Receptor α/γ Agonist, Improves Glucose and Lipid Metabolism” (Scientific Reports, 2019)
